Patent US20260070929A1, “METHODS AND COMPOSITIONS FOR MODULATING KRAS(G12D)” (Ranok Therapeutics (Hangzhou) Co. LTD., priority 2022, published 2026)
Where two headings read alike, the source gives them in different places.

Legend:
[1] = test system: A-427 lung carcinoma cells [heterozygous G12D]; assay: Cancer cell line proliferation (CellTiter-Glo), A-427; format: cell-based; details: A-427 cells, 72 hr treatment, read-out: A427 CTG (EC50)
Procedure, shortened: (§1)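 Cells at 4,000/well grown 72 hr, then treated with 3-fold serial dilutions (20 μM to 1.02 nM, 0.5% DMSO final) for 72 hr at 37° C/5% CO2. Viability by CellTiter-Glo luminescence; EC50 values calculated.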

[2] = test system: ASPC1 pancreatic adenocarcinoma cells [homozygous G12D]; assay: Cancer cell line proliferation (CellTiter-Glo), ASPC1; format: cell-based; details: 72 hr treatment, read-out: ASPC-1 CTG (EC50)
Procedure, shortened: as §1

[3] = target: T1, KRAS(G12D)/SOS1 (Homo sapiens, UniProt P01116, G12D); assay: KRAS(G12D)/SOS1 homogeneous time-resolved fluorescence (HTRF) assay; format: binding; details: absence of GTP; 4° C., 3 hr
T1 construct: purchased Cisbio 63ADK000CB17PEH
Procedure, shortened: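 HTRF kit assay of compound-blocked KRAS(G12D)–SOS1 interaction, run without GTP. Compounds were tested as 3-fold dilutions from 20 µM to 1.02 nM and incubated with the reaction components for 3 hr at 4 °C, sealed. IC50 was taken as the concentration giving 50% of maximal inhibition.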

[4] = test system: AGS gastric carcinoma cells [heterozygous G12D]; assay: Cancer cell line proliferation (CellTiter-Glo), AGS; format: cell-based; details: 72 hr treatment, read-out: AGS CTG (EC50)
Procedure, shortened: as §1

[5] = test system: SW1990 pancreatic adenocarcinoma cells [homozygous G12D]; assay: Cancer cell line proliferation (CellTiter-Glo), SW1990; format: cell-based; details: Homo sapiens, 72 hr treatment, read-out: SW1990 CTG (EC50)
Description: The following cancer cell lines were employed: AGS gastric carcinoma [heterozygous G12D](ATCC, CRL-1739); A-427 lung carcinoma [heterozygous G12D](ATCC, HTB-53); ASPC1 pancreatic adenocarcinoma [homozygous G12D](ATCC, CRL-1682) and SW1990 pancreatic adenocarcinoma [homozygous G12D](ATCC CRL-2172). Cell lines were cultured essentially according to ATCC recommendations.
AGS, A-427, ASPC1, SW1990, and GP2D cells were plated in 96-well tissue culture plates at 4,000 cells/well and incubated at 37° C./5% CO2 for 72 hr in 100 μl of media. 3-fold serial dilutions of each test compound were prepared ranging from 20 μM to 1.02 nM. Each cell line was then treated with test compounds at various concentrations with a final concentration of 0.5% DMSO/well, and then incubated at 37° C./5% CO2 for 72 hr. 100 µl of CellTiter-Glo® Reagent (Promega Corporation, Madison, WI) was added to each well and processed according manufacturer's protocol. Results were analyzed and EC50 values were calculated in GraphPad 7 software.

T1 sequence (P01116 1-188 isoform P01116-2 G12D): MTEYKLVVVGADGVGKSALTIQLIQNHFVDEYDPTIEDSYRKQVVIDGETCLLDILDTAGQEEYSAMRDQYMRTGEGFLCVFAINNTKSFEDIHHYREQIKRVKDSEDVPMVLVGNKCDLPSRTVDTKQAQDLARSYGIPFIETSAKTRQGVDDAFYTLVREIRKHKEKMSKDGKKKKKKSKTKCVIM

Structure (SMILES): CCNC(=O)c1nnc(-c2cc(C(C)C)c(O)cc2O)n1-c1ccc(CN2CCN(C[C@H]3CC[C@@H](COc4nc(N5CC6CCC(C5)N6)c5cnc(-c6cccc7ccccc67)c(F)c5n4)N3C)CC2)cc1 [Compound 66]
- EC50 ([1]; Homo sapiens): < 100 nM
- EC50 ([2]; Homo sapiens, ASPC1, 72 h): 100 to 1000 nM
- IC50 [3]: 100 to 1000 nM
- EC50 ([4]; Homo sapiens): < 100 nM

Structure (SMILES): Cc1cccc2cccc(-c3ncc4c(N5CC6CCC(C5)N6)nc(OC[C@@H]5C[C@H](N6CCN(Cc7ccc8c(c7)CN(C(=O)c7cc(C(C)C)c(O)cc7O)C8)CC6)CN5C)nc4c3F)c12 [Compound 68]
- EC50 [1]: 100 to 1000 nM
- EC50 [2]: > 1000 nM
- IC50 [3]: > 1000 nM
- EC50 [4]: 100 to 1000 nM

Structure (SMILES): CCNC(=O)c1nnc(-c2cc(C(C)C)c(O)cc2O)n1-c1ccc(CN2CCN([C@H]3C[C@@H](COc4nc(N5CC6CNC(C6)C5)c5cnc(-c6cccc7cccc(C)c67)c(F)c5n4)N(C)C3)CC2)cc1 (stereo partly shown) [Compound 69]
- EC50 ([1]; Homo sapiens): 100 to 1000 nM
- EC50 ([2]; Homo sapiens, ASPC1, 72 h): > 1000 nM
- IC50 [3]: > 1000 nM
- EC50 ([4]; Homo sapiens): 100 to 1000 nM

Structure (SMILES): CC(C)c1cc(C(=O)N2Cc3ccc(CN4CCC(C(=O)N5CCN(C[C@H]6CC[C@@H](COc7nc(N8CC9CCC(C8)N9)c8cnc(-c9cc(O)cc%10ccccc9%10)c(F)c8n7)N6C)CC5)CC4)cc3C2)c(O)cc1O [Compound 70]
- EC50 ([1]; Homo sapiens): 100 to 1000 nM
- EC50 ([2]; Homo sapiens, ASPC1, 72 h): > 1000 nM
- IC50 [3]: < 100 nM
- EC50 ([4]; Homo sapiens): 100 to 1000 nM

Structure (SMILES): C#Cc1cccc2cc(O)cc(-c3ncc4c(N5CC6CCC(C5)N6)nc(OCC5(CN6CCN(CC7CCN(c8ccc9c(c8)CN(C(=O)c8cc(C(C)C)c(O)cc8O)C9)CC7)CC6)CC5)nc4c3F)c12 [Compound 133]
- EC50 ([1]; Homo sapiens): 100 to 1000 nM
- EC50 ([2]; Homo sapiens, ASPC1, 72 h): 100 to 1000 nM
- IC50 [3]: < 100 nM
- EC50 ([4]; Homo sapiens): 100 to 1000 nM

Structure (SMILES): C#Cc1cccc2cc(O)cc(-c3ncc4c(N5CC6CNC(C6)C5)nc(OCC5(CN6CCN(CC7CCN(Cc8ccc(-n9c(C(=O)NC(C)C(F)(F)F)nnc9-c9cc(C(C)C)c(O)cc9O)cc8)CC7)CC6)CC5)nc4c3F)c12 (stereo not shown) [Compound 134]
- EC50 ([1]; Homo sapiens): 100 to 1000 nM
- EC50 ([2]; Homo sapiens, ASPC1, 72 h): 100 to 1000 nM
- IC50 [3]: < 100 nM
- EC50 ([4]; Homo sapiens): 100 to 1000 nM

Structure (SMILES): C#Cc1cccc2cc(O)cc(-c3ncc4c(N5CC6CNC(C6)C5)nc(OCC5(CN6CCN(CC7CCN(Cc8ccc(-n9c(C(=O)NCC(F)(F)F)nnc9-c9cc(C(C)C)c(O)cc9O)cc8)CC7)CC6)CC5)nc4c3F)c12 (stereo not shown) [Compound 135]
- EC50 ([1]; Homo sapiens): 100 to 1000 nM
- EC50 ([2]; Homo sapiens, ASPC1, 72 h): 100 to 1000 nM
- IC50 [3]: < 100 nM
- EC50 ([4]; Homo sapiens): 100 to 1000 nM

Structure (SMILES): C#Cc1cccc2cc(O)cc(-c3ncc4c(N5CC6CNC(C6)C5)nc(OCC5(CN6CCN(CC7CCN(C(=O)C8CCN(Cc9ccc%10c(c9)CN(C(=O)c9cc(C(C)C)c(O)cc9O)C%10)CC8)CC7)CC6)CC5)nc4c3F)c12 (stereo not shown) [Compound 136]
- EC50 ([1]; Homo sapiens): 100 to 1000 nM
- EC50 ([2]; Homo sapiens, ASPC1, 72 h): > 1000 nM
- IC50 [3]: 100 to 1000 nM
- EC50 ([4]; Homo sapiens): 100 to 1000 nM

Structure (SMILES): CC(C)c1cc(-c2nnc(C(=O)NC(C)C(F)(F)F)n2-c2ccc(CN3CCC(CN4CCN(CC5(COc6nc(N7CC8CCC(C7)N8)c7cnc(-c8cccc9ccccc89)c(F)c7n6)CC5)CC4)CC3)cc2)c(O)cc1O (stereo not shown) [Compound 137]
- EC50 ([1]; Homo sapiens): 100 to 1000 nM
- EC50 ([2]; Homo sapiens, ASPC1, 72 h): 100 to 1000 nM
- IC50 [3]: 100 to 1000 nM
- EC50 ([4]; Homo sapiens): 100 to 1000 nM

Structure (SMILES): C#Cc1cccc2cc(O)cc(-c3ncc4c(N5CC6CCC(C5)N6)nc(OCC5(CN6CC[C@H](C(=O)N7CCN(Cc8ccc9c(c8)CN(C(=O)c8cc(C(C)C)c(O)cc8O)C9)CC7)C6)CC5)nc4c3F)c12 [Compound 139]
- EC50 ([1]; Homo sapiens): 100 to 1000 nM
- EC50 ([2]; Homo sapiens, ASPC1, 72 h): > 1000 nM
- IC50 [3]: < 100 nM
- EC50 ([4]; Homo sapiens): 100 to 1000 nM

Structure (SMILES): C#Cc1cccc2cc(O)cc(-c3ncc4c(N5CC6CCC(C5)N6)nc(OCC5(CN6CCC(OC7CCN(Cc8ccc(-n9c(C(=O)NC(C)C(F)(F)F)nnc9-c9cc(C(C)C)c(O)cc9O)cc8)CC7)CC6)CC5)nc4c3F)c12 (stereo not shown) [Compound 140]
- EC50 ([1]; Homo sapiens): < 100 nM
- EC50 ([2]; Homo sapiens, ASPC1, 72 h): < 100 nM
- IC50 [3]: < 100 nM
- EC50 ([4]; Homo sapiens): < 100 nM

Structure (SMILES): C#Cc1cccc2cc(O)cc(-c3ncc4c(N5CC6CCC(C5)N6)nc(OCC5(CN6CCC(OC7CCN(C(=O)C8CCN(Cc9ccc%10c(c9)CN(C(=O)c9cc(C(C)C)c(O)cc9O)C%10)CC8)CC7)CC6)CC5)nc4c3F)c12 [Compound 141]
- EC50 ([1]; Homo sapiens): < 100 nM
- EC50 ([2]; Homo sapiens, ASPC1, 72 h): 100 to 1000 nM
- IC50 [3]: < 100 nM
- EC50 ([4]; Homo sapiens): < 100 nM

Structure (SMILES): C#Cc1c(F)ccc2cc(O)cc(-c3ncc4c(N5CC6CCC(C5)N6)nc(OCC5(CN6CCN(C7CN(Cc8ccc(-n9c(C(=O)NC(C)C(F)(F)F)nnc9-c9cc(C(C)C)c(O)cc9O)cc8)C7)CC6)CC5)nc4c3F)c12 (stereo not shown) [Compound 167]
- EC50 [5]: < 100 nM
- IC50 [3]: < 100 nM
- EC50 ([4]; Homo sapiens): < 100 nM

Structure (SMILES): C#Cc1c(F)ccc2cc(O)cc(-c3nc(OC)c4c(N5CC6CCC(C5)N6)nc(OCC5(CN6CCN(CC7CCN(Cc8ccc(-n9c(C(=O)NCC(F)(F)F)nnc9-c9cc(C(C)C)c(O)cc9O)cc8)CC7)CC6)CC5)nc4c3F)c12 [Compound 168]
- EC50 [5]: < 100 nM
- IC50 [3]: < 100 nM
- EC50 ([4]; Homo sapiens): < 100 nM

Structure (SMILES): C#Cc1c(F)ccc2cc(O)cc(-c3nc(OC)c4c(N5CC6CCC(C5)N6)nc(OCC5(CN6CCN(CC7CCN(Cc8ccc(-n9c(C(=O)NCC)nnc9-c9cc(C(C)C)c(O)cc9O)cc8)CC7)CC6)CC5)nc4c3F)c12 [Compound 169]
- EC50 [5]: < 100 nM
- IC50 [3]: < 100 nM
- EC50 ([4]; Homo sapiens): < 100 nM

Structure (SMILES): C#Cc1c(F)ccc2cc(O)cc(-c3nc(OC)c4c(N5CC6CCC(C5)N6)nc(OCC5(CN6CCN(C7CCN(Cc8ccc9c(c8)CN(C(=O)c8cc(O)c(C(C)C)cc8O)C9)CC7)CC6)CC5)nc4c3F)c12 [Compound 170]
- EC50 [5]: < 100 nM
- IC50 [3]: < 100 nM
- EC50 ([4]; Homo sapiens): < 100 nM

Structure (SMILES): C#Cc1cccc2cc(O)cc(-c3ncc4c(N5CC6CCC(C5)N6)nc(OCC5(CN6CCN(CC7CCN(Cc8ccc(-n9c(C(=O)NCC)nnc9-c9cc(C(C)C)c(OC)cc9OC)cc8)CC7)CC6)CC5)nc4c3F)c12 [Compound 195]
- EC50 [5]: 100 to 1000 nM
- EC50 ([4]; Homo sapiens): 100 to 1000 nM

Structure (SMILES): C#Cc1cccc2cc(O)cc(-c3ncc4c(N5CC6CNC(C6)C5)nc(OCC5(CN6CCN(CC7CCN(Cc8ccc(-n9c(C(=O)NCC)nnc9-c9cc(C(C)C)c(O)cc9O)cc8)CC7)CC6)CC5)nc4c3F)c12 (stereo not shown) [Compound 197]
- EC50 [5]: 100 to 1000 nM
- EC50 ([4]; Homo sapiens): < 100 nM

Structure (SMILES): C#Cc1c(F)ccc2cc(O)cc(-c3ncc4c(N5CC6CCC(C5)N6)nc(OCC5(CN6CCC(C7CCN(Cc8ccc9c(c8)CN(C(=O)c8cc(C(C)C)c(OC)cc8OC)C9)CC7)CC6)CC5)nc4c3F)c12 [Compound 199]
- EC50 [5]: 100 to 1000 nM
- EC50 ([4]; Homo sapiens): 100 to 1000 nM

Structure (SMILES): C#Cc1c(F)ccc2cc(O)cc(-c3ncc4c(N5CC6CCC(C5)N6)nc(OCC5(CN6CCN(C7CCN(Cc8ccc(-n9c(C(=O)NC(C)C(F)(F)F)nnc9-c9cc(C(C)C)c(OC)cc9OC)cc8)CC7)CC6)CC5)nc4c3F)c12 (stereo not shown) [Compound 200]
- EC50 [5]: > 1000 nM
- EC50 ([4]; Homo sapiens): 100 to 1000 nM

Structure (SMILES): C#Cc1c(F)ccc2cc(O)cc(-c3ncc4c(N5CC6CCC(C5)N6)nc(OCC5(CN6CC(N7CCN(Cc8ccc9c(c8)CN(C(=O)c8cc(C(C)C)c(O)cc8O)C9)CC7)C6)CC5)nc4c3F)c12 [Compound 202]
- EC50 [5]: 100 to 1000 nM
- EC50 ([4]; Homo sapiens): 100 to 1000 nM

Structure (SMILES): C#Cc1c(F)ccc2cc(O)cc(-c3ncc4c(N5CC6CCC(C5)N6)nc(OCC5(CN6CC(N7CCN(Cc8ccc(-n9c(C(=O)NC(C)C(F)(F)F)nnc9-c9cc(C(C)C)c(O)cc9O)cc8)CC7)C6)CC5)nc4c3F)c12 (stereo not shown) [Compound 203]
- EC50 [5]: < 100 nM

Structure (SMILES): C#Cc1c(F)ccc2cc(O)cc(-c3ncc4c(N5CC6CCC(C5)N6)nc(OC[C@H]5CCCN5Cc5ccc6c(c5)CN(C(=O)c5cc(C(C)C)c(O)cc5O)C6)nc4c3F)c12 [Compound 204]
- EC50 [5]: > 1000 nM
- EC50 ([4]; Homo sapiens): 100 to 1000 nM
